Data reported in PubChem BioAssay (NCI).
“And” between values parts separate entries of the source, which are not always exact repeats. Identical values can stand only once.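 How tested: cells in 96-well plates exposed to compound for 48 hours at five concentrations. At the GI50, growth is halved. The concentration for full growth arrest is given as TGI.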

Assays:
Assay in all cases: DTP human tumour cell line panel, 48 h
786-0 renal = test system: 786-0 renal
SF-268 CNS = test system: SF-268 CNS
RXF 393 renal = test system: RXF 393 renal
OVCAR-8 ovarian = test system: OVCAR-8 ovarian
CCRF-CEM leukemia = test system: CCRF-CEM leukemia
SW-620 colon = test system: SW-620 colon
UO-31 renal = test system: UO-31 renal
NCI-H23 lung = test system: NCI-H23 lung
SNB-19 CNS = test system: SNB-19 CNS
MDA-MB-435 = test system: MDA-MB-435
SF-295 CNS = test system: SF-295 CNS
NCI-H226 lung = test system: NCI-H226 lung
A498 renal = test system: A498 renal
LOX IMVI melanoma = test system: LOX IMVI melanoma

Structure (SMILES)	TGI (786-0 renal) [µM]	TGI (SF-268 CNS) [µM]	TGI (RXF 393 renal)	TGI (OVCAR-8 ovarian) [µM]	TGI (CCRF-CEM leukemia) [µM]	TGI (SW-620 colon) [µM]	TGI (UO-31 renal) [µM]	TGI (NCI-H23 lung) [µM]	TGI (SNB-19 CNS) [µM]	TGI (MDA-MB-435)	TGI (SF-295 CNS)	TGI (NCI-H226 lung)	TGI (A498 renal)	TGI (LOX IMVI melanoma) [µM]	GI50 (OVCAR-8 ovarian)	GI50 (CCRF-CEM leukemia) [µM]	GI50 (LOX IMVI melanoma)	GI50 (MDA-MB-435)	GI50 (SF-295 CNS)
Cn1c(-c2cccs2)cc(-c2ccsc2)c1-c1cccs1	> 100	> 100	> 100 µM	> 100	> 100	> 100	> 100	> 100	> 100	> 100 µM	> 100 µM	> 100 µM	> 100 µM						
CN(C)CCN=C1Nc2ccccc2C(=O)N2CSCC12 (stereo unspecified)	> 100	> 100	> 100 µM	> 100	> 100	> 100	> 100		> 100	> 100 µM	> 100 µM	> 100 µM	> 100 µM	> 100					
COc1cc(/C=C2\C(=O)N(c3ccc(NC(C)=O)cc3)C(c3ccccc3)S2(=O)=O)cc(OC)c1OC (stereo unspecified)	> 100		> 100 µM	> 100	> 100	> 100	> 100	> 100	> 100	> 100 µM	> 100 µM	> 100 µM	> 100 µM	> 100					
CCOC(=O)C(C)c1nc2cc(C(F)(F)F)ccc2[nH]c1=O (stereo unspecified)	> 100	> 100	> 100 µM	> 100	> 100	> 100	> 100	> 100	> 100	> 100 µM	> 100 µM	> 100 µM	> 100 µM	> 100					
COc1cc(/C=C2\CC(C)C/C(=C\c3ccc(O)c(OC)c3)C2=O)ccc1O (stereo unspecified)	> 100	20.7	7.56 µM	32.4	> 45	5.41	5.41	11	22.3	6.21 µM	29.8 µM	17.6 µM	9.61 µM	5.79					
O=[N+]([O-])c1cc2ccc1OCc1cccc(n1)COc1ccc(cc1[N+](=O)[O-])C=NCCCCCCCCN=C2	> 100	> 100		> 100	> 100	> 100	> 100	> 100	> 100	> 100 µM	> 100 µM	> 100 µM	> 100 µM	> 100					
COc1ccc(OC2OC(CO)C(O)C(O)C2O)cc1 (stereo unspecified)	> 100	> 100		> 100	> 100	> 100	> 100	> 100	> 100	> 100 µM	> 100 µM	> 100 µM	> 100 µM	> 100					
[O-]/[N+](=N/c1ncc(-c2ccccc2)cn1)c1ncc(-c2ccccc2)cn1	> 100	> 100	> 100 µM	> 100	> 100	> 100	> 100	> 100	> 100	> 100 µM	> 100 µM	> 100 µM	> 100 µM	> 100					
CCOC(=O)CNC(=O)CNC(=O)CNC(=O)CNNc1c(OCc2ccccc2)c(=O)c1=O	> 100	> 100	> 100 µM	> 100	> 100	> 100	> 100	> 100	> 100	> 100 µM		> 100 µM	> 100 µM						
C=C(C)CCN(C(=O)OC(C)(C)C)c1cc(C(C)C)co1	> 100	55.7		> 100	> 100	> 100	> 100	> 100	> 100	> 100 µM	> 100 µM	> 100 µM	> 100 µM	96.7					
CC(=O)c1c2c(cc3c1CC1(C3)Cc3cc4c(c(C(C)=O)c3C1)CCCC4)CCCC2	> 100		> 100 µM	> 100	44		0.314	> 100		> 100 µM	> 100 µM	> 100 µM	> 100 µM	> 100					
O=C1O/C(=C(/Cl)c2c3ccccc3cc3ccccc23)c2ccccc21	40.5	> 100	96.4 µM	69.9	59.1	> 100	> 100	79.9	> 100	58 µM	> 100 µM	73.6 µM	80.2 µM	8.04					
COC(=O)/C=C/c1ccc2c(c1)[C@H](C(=O)OC)[C@@H](c1ccc(O)cc1)O2	> 100	83.8		> 100	78	> 100	70	> 100	> 100	16.2 µM	> 100 µM	> 100 µM	> 100 µM	89.4					
CC(C)N(C(=O)C12C3(C(=O)C(C)(C)C)C4C5(C#N)C3C1(C(=O)C(C)(C)C)C5C42C(=O)C(C)(C)C)C(C)C (stereo unspecified)	> 100	> 100	> 100 µM	> 100	> 100	> 100	> 100	> 100	> 100	> 100 µM	> 100 µM		> 100 µM	> 100					
CC(CC(C)[C@H]1CCC2[C@H]3C(CC(=O)[C@@]21C)[C@@]1(C)CCC(O)C[C@H]1C[C@@H]3O)C(=O)O (stereo partly specified)	> 100	> 100	> 100 µM	> 100	> 100	> 100	> 100	> 100	> 100	> 100 µM		> 100 µM	> 100 µM	> 100					
COC(=O)/C=C1/OC(c2ccc(C)cc2C)=CC1=O	24.2	48.9	24.9 µM	37.4	> 100	10.4	30.5	61		30.1 µM		48.9 µM	42.3 µM	17.6					
Cc1ccc2nc(-c3ccc(-c4nc5ccc(C)cc5o4)c(O)c3)oc2c1	> 100	> 100		> 100	> 100	> 100	> 100	> 100	> 100	> 100 µM		> 100 µM	> 100 µM	> 100					
CN1C(=O)C(C#N)C2C[C@@]1(C)Oc1ccccc12 (stereo partly specified)	> 100	> 100	> 100 µM	> 100	> 100	> 100	> 100	> 100	> 100	> 100 µM	> 100 µM	> 100 µM	> 100 µM	> 100					
Cc1ccc(S(=O)(=O)OI(O)CC(F)(F)F)cc1	> 100	> 100	> 100 µM	> 100	> 100	> 100	> 100	> 100		> 100 µM	> 100 µM	> 100 µM	> 100 µM	> 100					
N/N=C(/CC(O)(C(F)(F)F)C(F)(F)F)c1ccccc1	> 10	> 10	> 10 µM	> 10	> 10	> 10		> 10	> 10	> 10 µM	> 10 µM	> 10 µM	> 10 µM	> 10					
Oc1ccccc1-c1n[nH]c(-c2ccccc2O)n1	> 100	> 100	> 100 µM	> 100	> 100	> 100	> 100			> 100 µM	> 100 µM	> 100 µM	> 100 µM	> 100					
O=C1OC(C2Cc3ccc4c(c3C2=O)CCCC4)c2ccccc21 (stereo unspecified)	> 100	> 100		> 100	> 100	> 100	> 100	> 100	> 100	> 100 µM	> 100 µM	59.2 µM	53.6 µM	> 100					
CC1CN=C(NS(=O)(=O)c2cc(C(=O)Nc3ccccc3)c(Cl)cc2S)NN1 (stereo unspecified)	> 100	> 100		> 100	> 100	> 100	> 100	> 100	> 100	52.5 µM	> 100 µM	> 100 µM	57.4 µM	> 100					
CNC(=O)OCc1nc(N=[N+]=[N-])n(C)c1COC(=O)NC	> 10	> 100	54.5 µM	> 100	> 100	> 100	> 10	> 100		> 100 µM	> 100 µM	> 100 µM	> 100 µM	> 100					
C=CCN1C(=O)/C(=C/c2ccc(OC)cc2)N=C1SC1OC(COC(C)=O)C(OC(C)=O)C(OC(C)=O)C1OC(C)=O (stereo unspecified)	> 100		46.5 µM and 89.5 µM	> 100	> 100	> 100		> 100	> 100	46.5 µM and > 100 µM	48.8 µM and > 100 µM	55.5 µM and > 100 µM	> 100 µM and 86.2 µM	> 100	13.1 µM and 54.1 µM	21.7	21.1 µM and 43.1 µM	18.6 µM and > 100 µM	21 µM and 70.3 µM
COc1ccc(C(c2cc(OC)c(OC)c(OC)c2)N2C(=O)CCC2C(=O)O)cc1 (stereo unspecified)	> 100	> 100		> 100	> 100	> 100	> 100	> 100	> 100	48.6 µM	66.4 µM	> 100 µM	> 100 µM	> 100					
